The subject of experiment [1] is subjects suffering from muscle pain exacerbated by ROS and/or inflammatory cytokines. The experiment can be described thus: Inhibition of muscle pain, self-rated pain scale 1 to 10 (Example 3). It is filed as in vivo, human. Particulars: effective dose, after several weeks of treatment; groups of 10 subjects; vs placebo. How it is done: Subjects suffering from muscle pain exacerbated by ROS and/or inflammatory cytokines are identified. The subjects are asked to rate their pain on a scale of 1 to 10, with 1 indicating no pain or mild pain and 10 indicating severe pain. The subjects are then separated into 11 groups of 10 subjects each. […] Subjects in Group 11 are administered a placebo. After several weeks of treatment, subjects are again asked to rate their pain using the scale above.

For experiment [2], the system named is patient suffering from Acute Myelogenous Leukemia (AML) and fibromyalgia. Particulars: given with IL-2, subcutaneously two times per day, 0.5 mg per injection, 21-day cycles repeated for 18 months with 21-day intermissions. How it is done:
A patient, suffering from Acute Myelogenous Leukemia (AML) and fibromyalgia received treatment with histamine dihydrochloride and IL-2. Histamine dihydrochloride was administered subcutaneously two times per day at a dosage of 0.5 mg per injection for a period of 21 consecutive days.
The above 21-day cycle was repeated for 18 months with 21-day intermissions between cycles.

Experiment [3] relates to patient with amyotrophic lateral sclerosis. Particulars: orally 1 mg/day for six months. How it is done:
A patient with amyotrophic lateral sclerosis received treatment with histamine dihydrochloride. Histamine dihydrochloride was administered orally at a dosage of 1 mg/day for a period of six months.

For experiment [4], the target named is membrane bound non-mitochondrial oxidase of stimulated phagocytes (Homo sapiens, UniProt P04839). Particulars: substrate of the oxidase that converts oxygen to superoxide; cited from earlier work.
For experiment [5], the system named is individuals suffering from multiple sclerosis. Particulars: orally 10, 30, 50, 100, 200 and 1,000 mg; vs placebo.
Description: Individuals suffering from multiple sclerosis are identified. The individuals are asked to fill out a questionnaire regarding commonly experienced symptoms experienced by MS patients as well as the rate and severity of each symptom. The individuals are then separated into 7 groups of 20 individuals. […] Individuals in Group 7 are administered a placebo. Following the course of treatment, the individuals are again asked to fill out the same questionnaire.

In the case of `NCCc1c[nH]cn1.O=P(O)(O)O` [histamine phosphate], in experiment [1], the “muscle pain, self-rated on a scale of 1 to 10” value (shortened to “muscle pain, self-rated”) is “reduction in muscle pain”.

Turning to `Cl.Cl.NCCc1c[nH]cn1` [histamine dihydrochloride], the “patient's symptoms (fibromyalgia muscle pain)” value in experiment [2] was “symptoms disappeared while on treatment and returned during intermissions”. Further, in experiment [3], the “progression of ALS” value is on record as “arrested”. In addition, the “muscle pain, self-rated” value in experiment [1] is listed as “reduction in muscle pain”. `NC(=O)C1=CN([C@@H]2O[C@H](COP(=O)(O)OP(=O)(O)OC[C@H]3O[C@@H](n4cnc5c(N)ncnc54)[C@H](O)[C@@H]3O)[C@@H](O)[C@H]2O)C=CC1` [NADH]: the Km (as a rule, the substrate concentration at which the rate is half of its maximum) in experiment [4] is 450 µM. `NCCc1c[nH]cn1` [histamine]: the “muscle pain, self-rated” value in experiment [1] is “reduction in muscle pain”. The “rate and severity of symptoms associated with muscle damage (questionnaire)” value in experiment [5] was “decrease in both the rate and severity of symptoms associated with muscle damage”.

Take `NCCc1c[nH]c2ccc(O)cc12` [serotonin]: in experiment [1], the “muscle pain, self-rated” value is on record as “reduction in muscle pain”. Take `NC(=O)C1=CN([C@@H]2O[C@H](COP(=O)(O)OP(=O)(O)OC[C@H]3O[C@@H](n4cnc5c(N)ncnc54)[C@H](OP(=O)(O)O)[C@@H]3O)[C@@H](O)[C@H]2O)C=CC1` [NADPH]: the Km in experiment [4] was 45 µM.

Values taken from patent US20060002913A1, “Use of histamine and related compounds to treat disorders affecting muscle function” (priority 2004, published 2006).
